Assay results: patent publication US6737383B1, “Herbicidal oxadiazolidines” (priority 1999, dated 2004)

Tests used:
sugar beet = test: Test B pre/postemergence sugar beet; type: in vivo, Beta vulgaris
Summary of the method: (§1)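 Herbicidal effect was estimated by eye on a ten-point control scale after plants spent twelve to sixteen days in a greenhouse following soil or foliar treatment. Foliar sprays targeted plants at one to four leaves; all doses were formulated in a non-phytotoxic solvent with surfactant.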

corn = test: Test B pre/postemergence corn; type: in vivo, Zea mays
Summary of the method: as §1

blackgrass = test: Test B pre/postemergence blackgrass; type: in vivo, Alopecurus myosuroides
Summary of the method: as §1

morningglory = test: Test B pre/postemergence morningglory; type: in vivo, Ipomoea hederacea
Summary of the method: as §1

wheat = test: Test B pre/postemergence wheat; type: in vivo, Triticum aestivum
Summary of the method: as §1

bedstraw = test: Test B pre/postemergence bedstraw; type: in vivo, Galium aparine
Summary of the method: as §1

soybean = test: Test B pre/postemergence soybean; type: in vivo, Glycine max
Summary of the method: as §1

crabgrass = test: Test B pre/postemergence crabgrass; type: in vivo, Digitaria sanguinalis
Summary of the method: as §1

purple nutsedge = test: Test B pre/postemergence purple nutsedge; type: in vivo, Cyperus rotundus
Summary of the method: as §1

giant foxtail = test: Test B pre/postemergence giant foxtail; type: in vivo, Setaria faberii
Summary of the method: as §1

cocklebur = test: Test B pre/postemergence cocklebur; type: in vivo, Xanthium strumarium
Summary of the method: as §1

rape = test: Test B pre/postemergence rape; type: in vivo, Brassica napus
Summary of the method: as §1

wild oat = test: Test B pre/postemergence wild oat; type: in vivo, Avena fatua
Summary of the method: as §1

velvetleaf = test: Test B pre/postemergence velvetleaf; type: in vivo, Abutilon theophrasti
Summary of the method: as §1

pigweed = test: Test B pre/postemergence pigweed; type: in vivo, Amaranthus retroflexus
Summary of the method: as §1

surinam grass = test: Test B pre/postemergence surinam grass; type: in vivo, Brachiaria decumbens
Summary of the method: as §1

[1] = Postemergence, Rate 62 g/ha, scale of 0 to 10, 0 is no effect, 10 is complete control
[2] = Postemergence, Rate 125 g/ha, scale 0 to 10, 0 is no effect, 10 is complete control
[3] = Postemergence, Rate 500 g/ha, scale 0 to 10, 0 is no effect, 10 is complete control
[4] = Preemergence, Rate 62 g/ha, scale of 0 to 10 where 0 is no effect and 10 is complete control
[5] = Preemergence, Rate 125 g/ha, scale 0 to 10, 0 is no effect, 10 is complete control
[6] = Preemergence, Rate 500 g/ha, scale of 0 to 10 where 0 is no effect and 10 is complete control
[7] = Postemergence, Rate 250 g/ha, scale 0 to 10
[8] = Preemergence, Rate 250 g/ha, scale 0 to 10, 0 is no effect, 10 is complete control
[9] = Preemergence, Rate 500 g/ha, scale 0 to 10, 0 is no effect, 10 is complete control

CC(=O)OCCCCn1c(=O)on(C(=O)N(c2ccc(F)cc2F)C(C)C)c1=O [Compound 506]
Sugarbeets plant response rating (sugar beet; [1]): 2 | Sugarbeets plant response rating (sugar beet; [2]): 6 | Plant response rating, Sugarbeets (sugar beet; [3]): 7 | Plant response rating, Sugarbeets (sugar beet; [4]): 0 | Sugarbeets plant response rating (sugar beet; [5]): 0 | Sugarbeets plant response rating (sugar beet; [6]): 0 | Corn plant response rating (corn; [1]): 0 | Corn plant response rating (corn; [2]): 0 | Corn plant response rating (corn; [7]): 0 | Plant response rating, Corn (corn; [3]): 0 | Plant response rating, Corn (corn; [4]): 0 | Corn plant response rating (corn; [5]): 0 | Corn plant response rating (corn; [6]): 0 | Blackgrass plant response rating (blackgrass; [1]): 0 | Blackgrass plant response rating (blackgrass; [2]): 0 | Blackgrass plant response rating (blackgrass; [7]): 5 | Plant response rating, Blackgrass (blackgrass; [3]): 6 | Plant response rating, Blackgrass (blackgrass; [4]): 0 | Blackgrass plant response rating (blackgrass; [5]): 0 | Blackgrass plant response rating (blackgrass; [8]): 4 | Blackgrass plant response rating (blackgrass; [6]): 9 | Morningglory plant response rating (morningglory; [1]): 0 | Morningglory plant response rating (morningglory; [2]): 0 | Plant response rating, Morningglory (morningglory; [3]): 5 | Plant response rating, Morningglory (morningglory; [4]): 0 | Morningglory plant response rating (morningglory; [5]): 0 | Morningglory plant response rating (morningglory; [6]): 0 | Wheat plant response rating (wheat; [1]): 0 | Wheat plant response rating (wheat; [2]): 0 | Plant response rating, Wheat (wheat; [3]): 4 | Plant response rating, Wheat (wheat; [4]): 0 | Wheat plant response rating (wheat; [5]): 0 | Wheat plant response rating (wheat; [6]): 2 | Plant response rating, Bedstraw (bedstraw; [3]): 9 | Plant response rating, Bedstraw (bedstraw; [4]): 0 | Bedstraw plant response rating (bedstraw; [5]): 0 | Bedstraw plant response rating (bedstraw; [8]): 0 | Bedstraw plant response rating (bedstraw; [9]): 4 | Soybean plant response rating (soybean; [1]): 2 | Soybean plant response rating (soybean; [2]): 2 | Plant response rating, Soybean (soybean; [3]): 4 | Plant response rating, Soybean (soybean; [4]): 0 | Soybean plant response rating (soybean; [5]): 0 | Soybean plant response rating (soybean; [6]): 0 | Crabgrass plant response rating (crabgrass; [1]): 0 | Crabgrass plant response rating (crabgrass; [2]): 3 | Crabgrass plant response rating (crabgrass; [7]): 7 | Plant response rating, Crabgrass (crabgrass; [3]): 8 | Plant response rating, Crabgrass (crabgrass; [4]): 0 | Crabgrass plant response rating (crabgrass; [5]): 0 | Crabgrass plant response rating (crabgrass; [6]): 6 | Nutsedge plant response rating (purple nutsedge; [1]): 0 | Nutsedge plant response rating (purple nutsedge; [2]): 0 | Plant response rating, Nutsedge (purple nutsedge; [3]): 0 | Plant response rating, Nutsedge (purple nutsedge; [4]): 0 | Nutsedge plant response rating (purple nutsedge; [5]): 0 | Nutsedge plant response rating (purple nutsedge; [6]): 10 | Giant foxtail plant response rating (giant foxtail; [1]): 2 | Plant response rating, Giant foxtail (giant foxtail; [3]): 8 | Plant response rating, Giant foxtail (giant foxtail; [4]): 0 | Giant foxtail plant response rating (giant foxtail; [5]): 5 | Giant foxtail plant response rating (giant foxtail; [6]): 8 | Cocklebur plant response rating (cocklebur; [1]): 0 | Cocklebur plant response rating (cocklebur; [2]): 0 | Cocklebur plant response rating (cocklebur; [7]): 2 | Plant response rating, Cocklebur (cocklebur; [3]): 6 | Plant response rating, Cocklebur (cocklebur; [4]): 0 | Cocklebur plant response rating (cocklebur; [5]): 0 | Cocklebur plant response rating (cocklebur; [8]): 0 | Cocklebur plant response rating (cocklebur; [6]): 0 | Rape plant response rating (rape; [1]): 0 | Rape plant response rating (rape; [2]): 0 | Plant response rating, Rape (rape; [3]): 7 | Plant response rating, Rape (rape; [4]): 0 | Rape plant response rating (rape; [5]): 0 | Rape plant response rating (rape; [6]): 8 | Wild oats plant response rating (wild oat; [1]): 0 | Wild oats plant response rating (wild oat; [2]): 0 | Plant response rating, Wild oats (wild oat; [3]): 2 | Plant response rating, Wild oats (wild oat; [4]): 0 | Wild oats plant response rating (wild oat; [5]): 2 | Wild oats plant response rating (wild oat; [6]): 7 | Velvetleaf plant response rating (velvetleaf; [1]): 0 | Velvetleaf plant response rating (velvetleaf; [2]): 0 | Plant response rating, Velvetleaf (velvetleaf; [3]): 4 | Plant response rating, Velvetleaf (velvetleaf; [4]): 0 | Velvetleaf plant response rating (velvetleaf; [5]): 0 | Velvetleaf plant response rating (velvetleaf; [6]): 0 | Redroot pigweed plant response rating (pigweed; [1]): 0 | Redroot pigweed plant response rating (pigweed; [2]): 0 | Plant response rating, Redroot pigweed (pigweed; [3]): 0 | Plant response rating, Redroot pigweed (pigweed; [4]): 2 | Redroot pigweed plant response rating (pigweed; [5]): 8 | Redroot pigweed plant response rating (pigweed; [6]): 10 | B. signalgrass plant response rating (surinam grass; [1]): 0 | B. signalgrass plant response rating (surinam grass; [2]): 0 | B. signalgrass plant response rating (surinam grass; Postemergence, Rate 250 g/ha, scale 0 to 10, 0 no effect, 10 complete control): 0 | Plant response rating, B. signalgrass (surinam grass; [3]): 0 | Plant response rating, B. signalgrass (surinam grass; [4]): 0 | B. signalgrass plant response rating (surinam grass; [5]): 0 | B. signalgrass plant response rating (surinam grass; [8]): 0 | B. signalgrass plant response rating (surinam grass; [9]): 0
